Source: article PMC5524711 (Scientific Reports, 2017)
Where two headings read alike, the source gives them in different places.

Legend:
[1] = target: T1, α1β2γ2 GABAA receptors (UniProt P18508+P47870+P62813); test: Xenopus oocyte two-electrode voltage clamp; format: cell-based, rat and human
T1 construct: expressed in transfected cells; host or cells: Xenopus laevis oocytes (cRNA injection)

[2] = target: GABAA receptors (washed rat brain membranes); test: Displacement of [3H]muscimol binding (PDSP); settings: 5 nM [3H]muscimol
Method: Rat brain membranes were prepared as described in the Protocol Manual on the PDSP website (https://pdspdb.unc.edu/pdspWeb/). […] The final concentration of [^3H]muscimol in the assay mixture was 5 nM. […] Analysis of ligand binding data.

[3] = target: GABAA receptors, benzodiazepine site (washed rat brain membranes); test: [3H]Flunitrazepam binding and displacement; settings: read-out: [3H]Flunitrazepam Binding, displacement, 1 nM [3H]flunitrazepam, 10 µM GABA
Method: Membrane Preparation. These experiments were performed at the University of Colorado Health Sciences Center, Denver, CO. Experiments were approved by the Institutional Animal Care and Use Committee (IACUC) of the University of Colorado, Denver, and were performed in accordance with the NIH Guide for the Care and Use of Laboratory Animals. Male Sprague-Dawley rats (200–250 g) were maintained in an AAALAC-accredited facility and sacrificed by CO2 exposure and decapitation. Brains were removed, and membranes were prepared from the forebrain as described previously. Ligand binding assay. […] Bound and free ligand were separated by rapid filtration under vacuum over Whatman GF/B filters presoaked in buffer in a 24 port Brandel Cell Harvester. Filters were washed with 2 × 5 ml of ice-cold HEPES buffer and dried prior to measurement of bound radioactivity by scintillation counting (Beckman LS3800 scintillation counter) using Ultima Gold XR scintillation cocktail. Analysis of ligand binding data.

[4] = target: T2, α1β2(N265S)γ2 GABAA receptors (UniProt P18508+P47870+P62813, N289S); parameters: method as in PMID 19741491; settings: concentrations up to 1 mM; cited from earlier work
T2 construct: expressed in transfected cells; host or cells: Xenopus laevis oocytes (cRNA injection)

[5] = target: T3, α1β1γ2 GABAA receptors (Rattus norvegicus, UniProt P15431+P18508+P62813); test: Xenopus oocyte two-electrode voltage clamp; format: cell-based; settings: a1b1g2
T3 construct: expressed in transfected cells; host or cells: Xenopus laevis oocytes (cRNA injection)

[6] = target: T4, α5β3 GABAA receptors (UniProt P31644+P63079); test: Xenopus oocyte two-electrode voltage clamp; format: cell-based, rat; settings: a5b3
T4 construct: expressed in transfected cells; host or cells: Xenopus laevis oocytes (cRNA injection)

[7] = target: T2, α1β2(N265S)γ2 GABAA receptors; test: Xenopus oocyte two-electrode voltage clamp; format: cell-based, rat and human; settings: a1b2(N265S)g2
[8] = target: T5, α1β3δ GABAA receptors (Rattus norvegicus, UniProt P18506+P62813+P63079); test: Xenopus oocyte two-electrode voltage clamp; format: cell-based; settings: a1b3d
T5 construct: expressed in transfected cells; host or cells: Xenopus laevis oocytes (cRNA injection)

[9] = target: T6, α1β2γ1 GABAA receptors (UniProt P47870+P62813+Q8N1C3); test: Xenopus oocyte two-electrode voltage clamp; format: cell-based, rat and human; settings: a1b2g1
T6 construct: expressed in transfected cells; host or cells: Xenopus laevis oocytes (cRNA injection); γ1 cDNA synthesized by GenScript in pGEMHE

[10] = target: T7, α1β3γ2 GABAA receptors (Rattus norvegicus, UniProt P18508+P62813+P63079); test: Xenopus oocyte two-electrode voltage clamp; format: cell-based; settings: a1b3g2
T7 construct: expressed in transfected cells; host or cells: Xenopus laevis oocytes (cRNA injection)

[11] = target: T8, α1β3 GABAA receptors (Rattus norvegicus, UniProt P62813+P63079); test: Xenopus oocyte two-electrode voltage clamp; format: cell-based; settings: a1b3
T8 construct: expressed in transfected cells; host or cells: Xenopus laevis oocytes (cRNA injection)

[12] = target: T9, α1β2 GABAA receptors (UniProt P47870+P62813); test: Xenopus oocyte two-electrode voltage clamp; format: cell-based, rat and human; settings: a1b2
T9 construct: expressed in transfected cells; host or cells: Xenopus laevis oocytes (cRNA injection)

[13] = target: T10, α4β3δ GABAA receptors (UniProt P18506+P48169+P63079); parameters: method as in Borghese et al., 2006; settings: a4b3d; ref Borghese et al., 2006; cited from earlier work
T10 construct: expressed in transfected cells; host or cells: Xenopus laevis oocytes (cRNA injection)

[14] = target: T11, α4β3γ2 GABAA receptors (UniProt P18508+P48169+P63079); parameters: method as in Borghese et al., 2006; settings: a4b3g2; ref Borghese et al., 2006; cited from earlier work
T11 construct: expressed in transfected cells; host or cells: Xenopus laevis oocytes (cRNA injection)

[15] = target: T12, α5β3γ2 GABAA receptors (UniProt P18508+P31644+P63079); test: Xenopus oocyte two-electrode voltage clamp; format: cell-based, rat; settings: a5b3g2
T12 construct: expressed in transfected cells; host or cells: Xenopus laevis oocytes (cRNA injection)

[16] = target: T11, α4β3γ2 GABAA receptors; test: Xenopus oocyte two-electrode voltage clamp; format: cell-based, rat; settings: a4b3g2; [Zn++] 1 µM
[17] = target: T10, α4β3δ GABAA receptors; test: Xenopus oocyte two-electrode voltage clamp; format: cell-based, rat; settings: a4b3d; [Zn++] 1 µM
[18] = tested on: medial CeA neurons; test: Brain slice whole cell patch clamp recording; format: cell-based, rat; settings: 100 μM, focally applied following DCUK-OEt (0.5 µM)
Method: Slices were prepared from brains of 5 adult male Wistar rats (250–350 g) as described by Herman et al.[56]. A single slice was transferred to a recording chamber mounted on the stage of an upright microscope (Olympus BX50WI).
Neurons were visualized and whole cell patch clamp recordings were made as previously described[56]. Series resistance was typically <15 MΩ and was continuously monitored with a hyperpolarizing 10 mV pulse. Electrophysiological properties of cells were determined by pClamp 10 Clampex software online during voltage-clamp recording using a 5 mV pulse delivered after breaking into the cell. The resting membrane potential was determined online after breaking into the cell using the zero current (I = 0) recording configuration and the liquid junction potential was included in the determination. […]
Frequency, amplitude and decay of spontaneous inhibitory postsynaptic currents (sIPSCs) were analyzed and visually confirmed using a semi-automated threshold based mini detection software (Mini Analysis, Synaptosoft Inc.). Averages of sIPSC characteristics were determined from baseline and experimental drug conditions containing a minimum of 60 events (time period of analysis varied as a product of individual event frequency) and decay kinetics were determined using exponential curve fittings and reported as decay time (ms). […]

T2 sequence (P62813 28-455): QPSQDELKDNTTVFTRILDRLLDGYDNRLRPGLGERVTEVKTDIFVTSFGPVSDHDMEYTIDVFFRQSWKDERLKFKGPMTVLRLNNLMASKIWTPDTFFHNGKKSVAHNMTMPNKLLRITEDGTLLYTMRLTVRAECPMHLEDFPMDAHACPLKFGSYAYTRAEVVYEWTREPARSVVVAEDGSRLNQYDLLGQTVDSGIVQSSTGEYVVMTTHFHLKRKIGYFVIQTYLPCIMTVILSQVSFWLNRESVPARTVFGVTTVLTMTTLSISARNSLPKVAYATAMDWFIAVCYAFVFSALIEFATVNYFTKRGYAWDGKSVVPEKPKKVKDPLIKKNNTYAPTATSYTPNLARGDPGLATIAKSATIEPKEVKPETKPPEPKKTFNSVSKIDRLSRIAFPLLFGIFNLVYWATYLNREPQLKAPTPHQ
T2 sequence (P47870 25-474 isoform P47870-1 N289S limits assumed): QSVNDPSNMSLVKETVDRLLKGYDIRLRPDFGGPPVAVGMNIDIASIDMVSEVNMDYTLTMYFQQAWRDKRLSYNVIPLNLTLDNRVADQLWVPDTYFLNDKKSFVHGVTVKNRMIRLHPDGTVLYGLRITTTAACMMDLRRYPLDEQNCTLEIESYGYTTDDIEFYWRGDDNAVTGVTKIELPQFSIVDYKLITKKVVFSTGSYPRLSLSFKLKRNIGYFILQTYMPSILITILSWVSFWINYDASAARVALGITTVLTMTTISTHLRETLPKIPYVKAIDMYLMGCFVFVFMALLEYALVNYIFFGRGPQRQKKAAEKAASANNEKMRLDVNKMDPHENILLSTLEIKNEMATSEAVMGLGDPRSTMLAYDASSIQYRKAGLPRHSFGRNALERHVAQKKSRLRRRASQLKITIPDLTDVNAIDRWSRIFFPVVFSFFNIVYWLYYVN
T2 sequence (P18508 39-466): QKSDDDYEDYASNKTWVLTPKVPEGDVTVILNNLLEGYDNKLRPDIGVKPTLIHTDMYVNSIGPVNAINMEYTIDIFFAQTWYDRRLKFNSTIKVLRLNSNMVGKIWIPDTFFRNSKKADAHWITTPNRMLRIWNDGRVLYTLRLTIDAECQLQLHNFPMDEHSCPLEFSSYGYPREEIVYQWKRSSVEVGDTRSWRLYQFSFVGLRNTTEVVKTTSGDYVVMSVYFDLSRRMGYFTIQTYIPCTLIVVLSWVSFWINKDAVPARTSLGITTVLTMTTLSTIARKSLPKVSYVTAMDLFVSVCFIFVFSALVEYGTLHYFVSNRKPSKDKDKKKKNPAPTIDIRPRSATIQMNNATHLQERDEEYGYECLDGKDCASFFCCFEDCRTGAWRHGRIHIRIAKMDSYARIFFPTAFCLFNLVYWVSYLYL
T1 sequence (P62813 28-455): as the sequence (P62813 28-455) above
T1 sequence (P47870 26-474 isoform P47870-1 limits assumed): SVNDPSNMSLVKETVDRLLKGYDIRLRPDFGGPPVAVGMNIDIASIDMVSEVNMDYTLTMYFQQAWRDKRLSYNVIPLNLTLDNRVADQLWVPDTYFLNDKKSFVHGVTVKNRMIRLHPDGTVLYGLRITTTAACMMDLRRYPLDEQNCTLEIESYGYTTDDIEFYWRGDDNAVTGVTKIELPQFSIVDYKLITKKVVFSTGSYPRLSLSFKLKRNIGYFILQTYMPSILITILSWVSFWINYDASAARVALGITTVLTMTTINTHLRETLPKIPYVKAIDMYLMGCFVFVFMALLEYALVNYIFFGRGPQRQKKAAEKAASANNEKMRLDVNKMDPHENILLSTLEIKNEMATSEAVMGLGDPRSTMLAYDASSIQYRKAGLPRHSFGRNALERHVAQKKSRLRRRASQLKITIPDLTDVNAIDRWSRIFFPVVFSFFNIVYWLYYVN
T1 sequence (P18508 39-466): as the sequence (P18508 39-466) above
T12 sequence (P31644 32-462): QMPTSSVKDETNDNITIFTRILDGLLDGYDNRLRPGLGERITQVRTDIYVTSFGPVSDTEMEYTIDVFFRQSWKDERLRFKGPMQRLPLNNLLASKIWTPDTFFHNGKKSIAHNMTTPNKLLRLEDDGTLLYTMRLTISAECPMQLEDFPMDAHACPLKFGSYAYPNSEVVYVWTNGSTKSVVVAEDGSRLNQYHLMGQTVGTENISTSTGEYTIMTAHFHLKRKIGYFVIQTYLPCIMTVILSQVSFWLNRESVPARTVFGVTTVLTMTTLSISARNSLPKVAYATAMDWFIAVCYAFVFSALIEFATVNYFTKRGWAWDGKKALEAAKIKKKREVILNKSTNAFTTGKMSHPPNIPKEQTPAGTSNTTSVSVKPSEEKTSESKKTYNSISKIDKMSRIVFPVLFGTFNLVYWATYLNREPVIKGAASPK
T12 sequence (P63079 26-473): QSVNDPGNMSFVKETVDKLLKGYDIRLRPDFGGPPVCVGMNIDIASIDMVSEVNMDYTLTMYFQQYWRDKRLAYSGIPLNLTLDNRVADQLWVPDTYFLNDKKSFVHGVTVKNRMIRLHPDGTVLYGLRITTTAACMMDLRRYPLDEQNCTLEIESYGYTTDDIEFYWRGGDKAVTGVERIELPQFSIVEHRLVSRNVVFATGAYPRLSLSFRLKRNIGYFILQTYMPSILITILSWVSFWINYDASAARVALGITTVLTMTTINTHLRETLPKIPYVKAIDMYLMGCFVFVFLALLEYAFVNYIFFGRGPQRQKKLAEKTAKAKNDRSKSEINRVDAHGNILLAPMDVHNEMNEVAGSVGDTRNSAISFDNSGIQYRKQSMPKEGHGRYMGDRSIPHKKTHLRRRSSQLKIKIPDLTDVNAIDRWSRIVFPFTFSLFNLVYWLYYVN
T12 sequence (P18508 39-466): as the sequence (P18508 39-466) above
T4 sequence (P31644 32-462): as the sequence (P31644 32-462) above
T4 sequence (P63079 26-473): as the sequence (P63079 26-473) above
T11 sequence (P48169 36-554): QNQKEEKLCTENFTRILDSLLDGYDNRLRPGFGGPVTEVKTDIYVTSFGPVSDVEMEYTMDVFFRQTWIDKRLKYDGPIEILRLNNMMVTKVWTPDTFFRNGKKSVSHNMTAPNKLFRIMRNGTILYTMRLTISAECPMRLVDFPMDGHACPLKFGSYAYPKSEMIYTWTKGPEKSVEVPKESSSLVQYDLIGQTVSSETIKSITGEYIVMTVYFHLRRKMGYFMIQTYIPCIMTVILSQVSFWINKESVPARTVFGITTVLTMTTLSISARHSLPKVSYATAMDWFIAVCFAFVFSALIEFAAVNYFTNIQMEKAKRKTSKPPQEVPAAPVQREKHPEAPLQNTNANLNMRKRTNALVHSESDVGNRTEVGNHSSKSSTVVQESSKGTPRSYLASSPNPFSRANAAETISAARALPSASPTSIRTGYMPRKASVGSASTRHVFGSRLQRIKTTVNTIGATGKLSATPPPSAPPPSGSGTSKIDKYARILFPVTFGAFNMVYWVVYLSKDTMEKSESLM
T11 sequence (P63079 26-473): as the sequence (P63079 26-473) above
T11 sequence (P18508 39-466): as the sequence (P18508 39-466) above
T10 sequence (P48169 36-554): as the sequence (P48169 36-554) above
T10 sequence (P63079 26-473): as the sequence (P63079 26-473) above
T10 sequence (P18506 17-449 limits assumed): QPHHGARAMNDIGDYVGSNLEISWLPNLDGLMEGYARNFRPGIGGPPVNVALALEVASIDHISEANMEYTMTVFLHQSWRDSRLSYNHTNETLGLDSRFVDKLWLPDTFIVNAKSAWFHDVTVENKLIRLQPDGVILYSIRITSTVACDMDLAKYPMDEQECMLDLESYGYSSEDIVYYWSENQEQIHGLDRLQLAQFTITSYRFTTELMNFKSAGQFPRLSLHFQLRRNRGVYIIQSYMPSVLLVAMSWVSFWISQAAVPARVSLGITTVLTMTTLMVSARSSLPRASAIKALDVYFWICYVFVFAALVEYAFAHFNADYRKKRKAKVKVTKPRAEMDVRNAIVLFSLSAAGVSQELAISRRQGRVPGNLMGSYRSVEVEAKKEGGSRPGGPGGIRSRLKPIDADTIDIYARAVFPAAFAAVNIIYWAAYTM
T7 sequence (P62813 28-455): as the sequence (P62813 28-455) above
T7 sequence (P63079 26-473): as the sequence (P63079 26-473) above
T7 sequence (P18508 39-466): as the sequence (P18508 39-466) above
T8 sequence (P62813 28-455): as the sequence (P62813 28-455) above
T8 sequence (P63079 26-473): as the sequence (P63079 26-473) above
T9 sequence (P62813 28-455): as the sequence (P62813 28-455) above
T9 sequence (P47870 26-474 isoform P47870-1 limits assumed): as the sequence (P47870 26-474 isoform P47870-1 limits assumed) above
T3 sequence (P62813 28-455): as the sequence (P62813 28-455) above
T3 sequence (P15431 26-474): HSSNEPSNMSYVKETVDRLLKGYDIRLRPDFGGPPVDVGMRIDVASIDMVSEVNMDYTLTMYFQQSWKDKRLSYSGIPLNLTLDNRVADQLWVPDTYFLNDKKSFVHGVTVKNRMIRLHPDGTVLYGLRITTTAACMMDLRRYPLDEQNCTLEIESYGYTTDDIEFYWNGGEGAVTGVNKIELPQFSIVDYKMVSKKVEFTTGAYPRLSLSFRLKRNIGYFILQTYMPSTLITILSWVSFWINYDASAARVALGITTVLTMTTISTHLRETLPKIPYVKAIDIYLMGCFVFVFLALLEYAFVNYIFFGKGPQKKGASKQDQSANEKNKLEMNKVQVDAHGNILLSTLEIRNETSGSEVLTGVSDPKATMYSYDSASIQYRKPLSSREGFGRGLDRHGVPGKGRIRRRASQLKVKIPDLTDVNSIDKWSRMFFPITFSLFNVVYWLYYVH
T3 sequence (P18508 39-466): as the sequence (P18508 39-466) above

`C[C@]12CC[C@@H](O)C[C@@H]1CC[C@@H]1[C@@H]2CC[C@]2(C)C(c3ccccc3)=CC[C@@H]12` [Compound 17PA, 17-phenyl-(3α,5α)-androst-16-en-3-ol] showed an inhibition at 10 µM ([1]; read-out: Inhibition by 17PA of DCUK-OEt potentiation of GABA actions) of 35% and an inhibition at 10 µM ([1]; read-out: Inhibition by 17PA of the potentiating effects of allopregnanolone on GABA-induced currents) of 56%.
In the case of `O=C(O)c1cc(NC(=O)N(c2ccccc2)c2ccccc2)c2c(Cl)cc(Cl)cc2n1` [DCUKA, 5,7 dichloro-4-([diphenylcarbamoyl]amino) quinoline-2-carboxylic acid], the “Effect of co-applied flumazenil on DCUK actions on α1β2γ2 GABAA receptors” value ([1]; 20 μM flumazenil, EC10 GABA) is reported as “did not significantly affect”, the “Effect on submaximal GABA (EC10) currents” value ([1]; oocytes containing α1β2γ2 GABAA receptors) is reported as “enhanced” and the Ki [2] is reported as 6.6 ± 1.9 µM. For the same compound, the Ki [3] was > 10 µM.
In the case of `CCOC(=O)c1cncn1[C@H](C)c1ccccc1` [Etomidate, etomidate], the “GABA potentiating effect at α1β2(N265S)γ2” value [4] is listed as “no GABA potentiating effect”.
For `NCCCC(=O)O` [GABA, γ-aminobutyric acid], the “nH (Hill coefficient of GABA concentration-response curve)” value [5] was 0.76 ± 0.07, the “nH (Hill coefficient of GABA concentration-response curve)” value [6] was 0.93 ± 0.07 and the “nH (Hill coefficient of GABA concentration-response curve)” value [7] was 0.81 ± 0.06. The “nH (Hill coefficient of GABA concentration-response curve)” value [8] was 0.78 ± 0.07, the “nH (Hill coefficient of GABA concentration-response curve)” value [9] was 0.87 ± 0.06 and the “nH (Hill coefficient of GABA concentration-response curve)” value [10] was 1.33 ± 0.08. The “nH (Hill coefficient of GABA concentration-response curve)” value [11] was 0.97 ± 0.06, the “nH (Hill coefficient of GABA concentration-response curve)” value ([1]; a1b2g2) was 0.99 ± 0.03 and the “nH (Hill coefficient of GABA concentration-response curve)” value [12] was 1.19 ± 0.08. For the same compound, the “nH (Hill coefficient of GABA concentration-response curve)” value [13] was 0.84 ± 0.07, the “nH (Hill coefficient of GABA concentration-response curve)” value [14] was 1.01 ± 0.09 and the “nH (Hill coefficient of GABA concentration-response curve)” value [15] was 0.93 ± 0.04.
For `[Zn+2]` [Zn++], the “% change of EC10 GABA responses by Zn++” value [16] was -43 ± 4%, the “% change of EC10 GABA responses by Zn++” value ([5]; [Zn++] 100 µM) was 21 ± 3% and the “% change of EC10 GABA responses by Zn++” value ([6]; [Zn++] 10 µM) was -89 ± 2%. For the same compound, the “% change of EC10 GABA responses by Zn++” value ([7]; [Zn++] 10 µM) was 10 ± 2%, the “% change of EC10 GABA responses by Zn++” value ([8]; [Zn++] 1 µM) was -35 ± 1% and the “% change of EC10 GABA responses by Zn++” value ([9]; [Zn++] 10 µM) was 0.4 ± 1.4%. The “% change of EC10 GABA responses by Zn++” value ([10]; [Zn++] 10 µM) was -19 ± 4%, the “% change of EC10 GABA responses by Zn++” value ([11]; [Zn++] 1 µM) was -85 ± 3% and the “% change of EC10 GABA responses by Zn++” value ([1]; a1b2g2, [Zn++] 10 µM) was -9 ± 4%. The “% change of EC10 GABA responses by Zn++” value ([12]; [Zn++] 10 µM) was -99 ± 1%, the “% change of EC10 GABA responses by Zn++” value ([15]; [Zn++] 10 µM) was -29 ± 6% and the “% change of EC10 GABA responses by Zn++” value [17] was -31 ± 6%.
With `CCOC(=O)c1ncn2c1CN(C)C(=O)c1cc(F)ccc1-2` [flumazenil] the “Potentiation of EC10 GABA responses” value [1] was 51 ± 2%.
With `COc1ccc(-c2ccc(=N)n(CCCC(=O)O)n2)cc1` [gabazine] the “Holding current when applied after DCUK-OEt” value [18] was “significant reduction in holding current”.
